14 molecules from US20080132549A1, “Sulphur-Linked Imidazone Compounds for the Treatment of Hiv/Aids” (Pfizer Inc., priority 2004, published 2008) can be followed below.

Broadly, the melting point is the temperature, or range, at which the solid turns liquid. What is called IC50 is the concentration that gives 50% inhibition.

In data set [1] the target is T1, purified recombinant HIV-1 reverse transcriptase (Human immunodeficiency virus type 1 group M subtype B, UniProt P04585).
T1 construct: purified recombinant HIV-1 reverse transcriptase (RT, EC, 2.7.7.49); made in house; host or cells: Escherichia coli
Briefly: Inhibition of HIV-1 reverse transcriptase enzyme ([3H]-Flashplate enzyme assay, 384-well). The format is biochemical. The settings on record: recombinant HIV-1 RT expressed in Escherichia Coli; 5% final DMSO. An excerpt:
The activity of the compounds of the invention as reverse transcriptase inhibitors may be measured using the following assay.
Inhibition of HIV-1 Reverse Transcriptase Enzyme
The reverse transcriptase activity of the compounds of the invention may be assayed as follows. Using the purified recombinant HIV-1 reverse transcriptase (RT, EC, 2.7.7.49) obtained by expression in Escherichia Coli, a 384-well plate assay system was established for assaying a large number of samples using the [3H]-Flashplate enzyme assay system (NEN-SMP 410A) following the manufacturer's recommendations. The compounds were dissolved in 100% DMSO and diluted with the appropriate buffer to a 5% final DMSO concentration. The inhibitory activity was expressed in percent inhibition relative to the DMSO control.

As to `CCn1c(COC(N)=O)nc(C2CC2)c1Sc1cc(C#N)cc(C#N)c1`, the melting point was 170 to 172 °C.

As for `CCn1c(COC(N)=O)nc(C(C)C)c1Sc1cc(C#N)cc(C#N)c1`, the melting point fell in the range of 174 to 175 °C. Consider `CCn1c(COC)nc(C(C)C)c1Sc1cc(C#N)cc(C#N)c1`, for which the melting point lay within 156 to 158 °C. `CCc1nc(CN)n(CC)c1Sc1cc(C#N)cc(C#N)c1` registered a melting point of 133 to 135 °C. For the molecule `CCc1nc(CO)n(CC)c1Sc1cc(C#N)cc(C#N)c1`, the melting point lay within 141 to 143 °C. Still for that read-out and setting: next, `CCn1c(CCO)nc(C2CC2)c1Sc1cc(C#N)cc(C#N)c1`: 122 to 124 °C; `CCn1c(CO)nc(C(C)C)c1Sc1cc(C#N)cc(C#N)c1`: 167 to 169 °C. Regarding `CCc1nc(CCO)n(CC)c1Sc1cc(C#N)cc(C#N)c1` [Example 1, 5-[3,5-Diethyl-2-(2-hydroxyethyl)-3H-imidazol-4-ylsulfanyl]-isophthalonitrile], the IC50 in data set [1] stood at 38 nM. On to `CCc1nc(CCOC(N)=O)n(C)c1Sc1cc(C#N)cc(C#N)c1` [Example 4, Carbamic acid 2-[5-(3,5-dicyano-phenylsulfanyl)-4-ethyl-1-methyl-1H-imidazol-2-yl]-ethyl ester], for which the IC50 in data set [1] stood at 926 nM. Take `CCn1c(CO)nc(C(F)(F)F)c1Sc1cc(C#N)cc(C#N)c1` [Example 9]: the melting point lay within 184 to 186 °C. Also, the IC50 in data set [1] amounted to 1160 nM. Regarding `Cn1c(COC(N)=O)nc(C2CC2)c1Sc1cc(C#N)cc(C#N)c1` [Example 14, Carbamic acid 4-cyclopropyl-5-(3,5-dicyano-phenylsulfanyl)-1-methyl-1H-imidazol-2-ylmethyl ester], the IC50 in data set [1] turned out to be 353 nM. Same read-out and setting: next, `CCc1nc(CCOC)n(CC)c1Sc1cc(C#N)cc(C#N)c1` [Example 23, 5-[3,5-Diethyl-2-(2-methoxy-ethyl)-3H-imidazol-4-ylsulfanyl]-isophthalonitrile]: 147 nM; `Cc1nc(C(F)(F)F)c(Sc2cc(C#N)cc(C#N)c2)n1C` [Example 38]: 1070 nM; `Cc1nc(C2CC2)c(Sc2cc(C#N)cc(C#N)c2)n1Cc1ccncc1` [Example 40]: 135 nM.
